Laboratory results as given in patent US20250092039A1, “GLUTARIMIDE-CONTAINING PAN-KRAS-MUTANT DEGRADER COMPOUNDS AND USES THEREOF” (Tiger Biotherapeutics Inc., priority 2022, published 2025).

Key:
SW620 cells = assay: 3D cell growth inhibition of SW620 cells carrying endogenous KRAS G12V mutation (CellTiter-Glo 3D, GI50); type: cell-based; conditions: Homo sapiens, SW-620, 144 h; SW620 cells, 6 days; read-out: SW620 3D cell growth GI50
Description: The following day, the test compound was administered to the cells by using 1000× compound stock solution prepared in DMSO at various concentrations. 1000× compound stock solution was first diluted in culturing medium to 10×, then 10 μL compound medium was added to each well in the cell plates. After administration of the compound, the cells were then incubated at 37° C. for 6 days. Upon completion, the plates were equilibrated at room temperature for approximately 10 minutes. 100 μL of CellTiter-Glo® 3D Reagent (Promega) was added to each well. The plates were then incubated at room temperature for 30 minutes and luminescence was recorded by EnSpire plate reader (PerkinElmer).

KRAS-G12V/RAF1 = KRAS-G12V/RAF1 (Homo sapiens (Human), UniProt P01116, G12V); assay: KRAS/RAF1 binding inhibition assay (AlphaScreen)
Method in brief: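 IC50 comes from variable-slope nonlinear fits of % inhibition (relative to DMSO) against inhibitor concentration. The AlphaScreen signal tracks the interaction of GppNHp-bound KRAS G12V with the RAF1 RBD after 60 min at 4° C with compound in 2% DMSO final.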

KRAS G12V = KRAS G12V (Homo sapiens (Human), UniProt P01116, G12V); assay: KRAS G12V degradation in SW620 cells (Western blot, DC50); type: cell-based; conditions: 24 hours
Method in brief: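 KRAS levels were quantified by fluorescent Western blot as percent of the DMSO control after 24 h of compound exposure at 37° C in homozygous KRAS G12V SW620 cells. A four-parameter variable-slope fit of the dose-response gave the half-maximal degradation concentration.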

Sequence of KRAS G12V (P01116-2 other isoform, or with tags, fused parts or gaps G12V): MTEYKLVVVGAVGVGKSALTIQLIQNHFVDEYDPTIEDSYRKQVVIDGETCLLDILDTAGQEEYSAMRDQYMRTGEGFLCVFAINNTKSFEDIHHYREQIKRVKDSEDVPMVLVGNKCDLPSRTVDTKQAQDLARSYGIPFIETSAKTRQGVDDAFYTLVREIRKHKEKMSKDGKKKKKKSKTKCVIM
Sequence of KRAS-G12V/RAF1 (P01116-2 other isoform, or with tags, fused parts or gaps G12V): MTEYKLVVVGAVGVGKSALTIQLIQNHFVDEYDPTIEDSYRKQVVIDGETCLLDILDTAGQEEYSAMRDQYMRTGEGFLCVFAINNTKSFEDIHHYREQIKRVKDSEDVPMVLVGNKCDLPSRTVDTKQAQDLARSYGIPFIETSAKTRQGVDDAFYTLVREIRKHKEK

Compound	GI50 (SW620 cells) [nM]	IC50 (KRAS-G12V/RAF1) [nM]	DC50 (KRAS G12V) [nM]
CCc1cccc2cc(O)cc(-c3ncc4c(N(C)[C@@H]5C[C@H]5F)nc(OCC5(CN6CCC(CN7CCN(c8ccc9c(c8)CN([C@H]8CCC(=O)NC8=O)C9=O)CC7)CC6)CC5)nc4c3F)c12 [Compound 29, (S)-3-(5-(4-((1-((1-(((7-(8-ethyl-3-hydroxynaphthalen-1-yl)-8-fluoro-4-(((1R,2R)-2-fluorocyclopropyl)(methyl)amino)pyrido[4,3-d]pyrimidin-2-yl)oxy)methyl)cyclopropyl)methyl)piperidin-4-yl)methyl)piperazin-1-yl)-1-oxoisoindolin-2-yl)piperidine-2,6-dione]	10 to 100	> 200	–
CCc1c(F)ccc2cc(O)cc(-c3ncc4c(N5CCC[C@@](C)(O)C5)nc(OCC5(CN6CC7(CC(N8CCN(c9ccc%10c(c9)CN([C@H]9CCC(=O)NC9=O)C%10=O)CC8)C7)C6)CC5)nc4c3F)c12 [Compound 122, (S)-3-(5-(4-(2-((1-(((7-(8-ethyl-7-fluoro-3-hydroxynaphthalen-1-yl)-8-fluoro-4-((R)-3-hydroxy-3-methylpiperidin-1-yl)pyrido[4,3-d]pyrimidin-2-yl)oxy)methyl)cyclopropyl)methyl)-2-azaspiro[3.3]heptan-6-yl)piperazin-1-yl)-1-oxoisoindolin-2-yl)piperidine-2,6-dione]	< 10	–	1 to 10
C[C@@]1(O)CCCN(c2nc(OCC3(CN4CCC5(CCC(N6CCN(c7ccc8c(c7)CN([C@H]7CCC(=O)NC7=O)C8=O)CC6)CC5)CC4)CC3)nc3c(F)c(-c4cc(N)cc5ccc(F)c(F)c45)ncc23)C1 [Compound 35, (S)-3-(5-(4-(3-((1-(((7-(3-amino-7,8-difluoronaphthalen-1-yl)-8-fluoro-4-((R)-3-hydroxy-3-methylpiperidin-1-yl)pyrido[4,3-d]pyrimidin-2-yl)oxy)methyl)cyclopropyl)methyl)-3-azaspiro[5.5]undecan-9-yl)piperazin-1-yl)-1-oxoisoindolin-2-yl)piperidine-2,6-dione]	> 100	–	> 100

Next, values leading:

GI50 (SW620 cells) [nM]	IC50 (KRAS-G12V/RAF1) [nM]	DC50 (KRAS G12V) [nM]	Compound
< 10	20 to 200	–	CCc1c(F)ccc2cc(O)cc(-c3ncc4c(N5CCC[C@]6(CCO6)C5)nc(OCC5(CN6CCC(CN7CCN(c8ccc9c(c8)CN([C@H]8CCC(=O)NC8=O)C9=O)CC7)CC6)CC5)nc4c3F)c12 [Compound 44, (S)-3-(5-(4-((1-((1-(((7-(8-ethyl-7-fluoro-3-hydroxynaphthalen-1-yl)-8-fluoro-4-((S)-1-oxa-6-azaspiro[3.5]nonan-6-yl)pyrido[4,3-d]pyrimidin-2-yl)oxy)methyl)cyclopropyl)methyl)piperidin-4-yl)methyl)piperazin-1-yl)-1-oxoisoindolin-2-yl)piperidine-2,6-dione]
< 10	–	< 1	C[C@@]1(O)CCCN(c2nc(OCC3(CN4CCC5(CC4)CC(CN4CCN(c6ccc7c(c6)CN([C@H]6CCC(=O)NC6=O)C7=O)CC4)C5)CC3)nc3c(F)c(-c4cc(O)cc5ccc(F)c(Cl)c45)ncc23)C1 [Compound 157, (S)-3-(5-(4-((7-((1-(((7-(8-chloro-7-fluoro-3-hydroxynaphthalen-1-yl)-8-fluoro-4-((R)-3-hydroxy-3-methylpiperidin-1-yl)pyrido[4,3-d]pyrimidin-2-yl)oxy)methyl)cyclopropyl)methyl)-7-azaspiro[3.5]nonan-2-yl)methyl)piperazin-1-yl)-1-oxoisoindolin-2-yl)piperidine-2,6-dione]
> 100	–	> 100	CCc1c(F)ccc2cc(O)cc(-c3ncc4c(N5CCCNC(=O)C5)nc(OCC5(CN6CCC7(CC6)CC(CN6CCN(c8ccc9c(c8)CN([C@H]8CCC(=O)NC8=O)C9=O)CC6)C7)CC5)nc4c3F)c12 [Compound 93, (S)-3-(5-(4-((7-((1-(((7-(8-ethyl-7-fluoro-3-hydroxynaphthalen-1-yl)-8-fluoro-4-(3-oxo-1,4-diazepan-1-yl)pyrido[4,3-d]pyrimidin-2-yl)oxy)methyl)cyclopropyl)methyl)-7-azaspiro[3.5]nonan-2-yl)methyl)piperazin-1-yl)-1-oxoisoindolin-2-yl)piperidine-2,6-dione]
